Source: US6592890B1, “Conveyance of anti-infective activity to wound dressings” (OxiBio, Inc., priority 1999, dated 2003)

System: C. albicans

II [elemental iodine]
elemental iodine concentrations required to affect microbial killing: < 0.01%
